# According to patent US20210127726A1, “METHODS FOR IMPROVING THE SOLUBILITY OF STEVIOL GLYCOSIDE MIXTURES, AND USES” (The Coca-Cola Company, priority 2018, published 2021):
# Assay: Aqueous solubility of steviol glycosides and blends
# Type: physicochemical
# Experimental: A number of methods are known in the art for determining aqueous solubility. In one such method, solubility can be determined by a solvent addition method in which a weighed sample is treated with aliquots of aqueous solvent. The mixture is generally vortexed and/or sonicated between additions to facilitate dissolution. Complete dissolution of the test material is determined by visual inspection. Solubility is calculated based on the total solvent used to provide complete dissolution.
# Another method for determining solubility is by measuring the turbidity (NTU units) of a composition using a turbidimeter, such as HACH 2100 AN. In a typical experiment, a portion of the composition to be measured is added to a portion of aqueous solvent (or visa versa) at room temperature. Turbidity is measured after waiting from 2-10 minutes to observe visual dissolution of the portion. Then, another portion of the composition is added, dissolution is observed and turbidity is measured again. This process is repeated until turbidity reaches exceeds beyond acceptable values, typically around 4 NTU-10 NTU. While turbidity measurements can be very useful in determining solubility, it will not detect solids collected on the bottom of a container. Accordingly, it is important to shake the container prior to determining turbidity and confirm a given turbidity measurement with visual inspection of dissolution. […]
row,aqueous solubility,SMILES
1,0.05 wt %,"C=C1C[C@@]23CC[C@H]4[C@@](C)(CCC[C@@]4(C)C(=O)O[C@@H]4O[C@H](CO)[C@@H](O)[C@H](O)[C@H]4O[C@@H]4O[C@H](CO)[C@@H](O)[C@H](O)[C@H]4O)[C@@H]2CC[C@]1(O[C@@H]1O[C@H](CO)[C@@H](O)[C@H](O[C@@H]2O[C@H](CO)[C@@H](O)[C@H](O)[C@H]2O)[C@H]1O[C@@H]1O[C@H](CO)[C@@H](O)[C@H](O)[C@H]1O)C3 [Pure reb D, rebaudioside D]"
2,0.1 wt %,"C=C1C[C@@]23CC[C@H]4[C@@](C)(CCC[C@@]4(C)C(=O)O[C@@H]4O[C@H](CO)[C@@H](O)[C@H](O[C@@H]5O[C@H](CO)[C@@H](O)[C@H](O)[C@H]5O)[C@H]4O[C@@H]4O[C@H](CO)[C@@H](O)[C@H](O)[C@H]4O)[C@@H]2CC[C@]1(O[C@@H]1O[C@H](CO)[C@@H](O)[C@H](O[C@@H]2O[C@H](CO)[C@@H](O)[C@H](O)[C@H]2O)[C@H]1O[C@@H]1O[C@H](CO)[C@@H](O)[C@H](O)[C@H]1O)C3 [Pure reb M, 13-[(2-O-β-D-glucopyranosyl-3-O-β-D-glucopyranosyl-β-D-glucopyranosyl)oxy] ent kaur-16-en-19-oic acid-[(2-O-β-D-glucopyranosyl-3-O-β-D-glucopyranosyl-β-D-glucopyranosyl) ester]]"
